Measured values published in patent US20240158446A1, “CYCLIC COMPOUND HAVING SELECTIVE INHIBITORY ACTION ON KRAS OVER HRAS AND NRAS” (CHUGAI SEIYAKU KABUSHIKI KAISHA, priority 2021, published 2024).
pIC50: −log10 of the molar value. Where a SMILES comes first, the peptide text is derived from it. Bridges are numbered along the chain shown (N, C = ends). [ ]: non-standard residue; d: D form. The star is where a group is joined. hPhe(3-Cl-4-CF3) = N[C@@H](CCc1ccc(C(F)(F)F)c(Cl)c1)C(=O)O; NPrPhe(4-CF3) = CCCN[C@@H](Cc1ccc(C(F)(F)F)cc1)C(=O)O; NEtPhe(4-Me) = CCN[C@@H](Cc1ccc(C)cc1)C(=O)O; NMeGly(cPent) = CN[C@H](C(=O)O)C1CCCC1; Pro(4,4-F2) = O=C(O)[C@@H]1CC(F)(F)CN1; Hyp = O=C(O)[C@@H]1C[C@@H](O)CN1; NMeD = CN[C@@H](CC(=O)O)C(=O)O; NMeL = CN[C@@H](CC(C)C)C(=O)O; NMeV = CN[C@H](C(=O)O)C(C)C; Morpholide = C1CN(*)CCO1; Ac5c = NC1(C(=O)O)CCCC1; Aze = O=C(O)[C@@H]1CCN1; Ac4c = NC1(C(=O)O)CCC1; Sar = CNCC(=O)O

Legend:
[1] = target: GDP-bound NRAS wild-type protein (Homo sapiens, UniProt P01111); assay: Binding to NRAS by surface plasmon resonance (SPR), Single Cycle Kinetics; details: SPR, GDP-bound NRAS wild-type protein vs GDP-bound KRAS wild-type protein
Chain of GDP-bound NRAS wild-type protein (P01111 whole entry): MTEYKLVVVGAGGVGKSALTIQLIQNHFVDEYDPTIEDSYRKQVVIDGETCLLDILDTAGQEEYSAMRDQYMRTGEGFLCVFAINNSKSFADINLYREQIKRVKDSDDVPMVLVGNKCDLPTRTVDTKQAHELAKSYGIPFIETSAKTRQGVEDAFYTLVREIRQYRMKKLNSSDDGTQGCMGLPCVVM

[2] = target: GDP-bound HRAS wild-type protein (Homo sapiens, UniProt P01112); assay: Binding to HRAS by surface plasmon resonance (SPR), Single Cycle Kinetics; details: SPR, GDP-bound HRAS wild-type protein vs GDP-bound KRAS wild-type protein
Chain of GDP-bound HRAS wild-type protein (P01112 whole entry): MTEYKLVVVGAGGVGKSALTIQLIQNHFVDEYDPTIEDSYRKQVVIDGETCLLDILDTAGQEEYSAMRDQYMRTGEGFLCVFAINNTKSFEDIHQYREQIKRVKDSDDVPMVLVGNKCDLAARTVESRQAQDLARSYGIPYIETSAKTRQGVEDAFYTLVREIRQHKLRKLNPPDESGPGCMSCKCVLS

[3] = system: human lung cancer strain NCI-H441;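 further: cell proliferation inhibition after four days measured by CellTiter-Glo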

Structure (SMILES) | NRAS/KRAS (ratio of KD value for NRAS to KD value for KRAS) [1] | HRAS/KRAS (ratio of KD value for HRAS to KD value for KRAS) [2] | pIC50 [3] | NRAS/KRAS (ratio of KD value with respect to NRAS to KD value with respect to KRAS) [1] | HRAS/KRAS (ratio of KD value with respect to HRAS to KD value with respect to KRAS) [2]
CCCN1C(=O)CN(C)C(=O)[C@@H]2CCN2C(=O)[C@H]([C@@H](C)CC)NC(=O)[C@H](CC(C)C)N(C)C(=O)C[C@@H](C(=O)N2CCOCC2)N(C)C(=O)[C@H](C2CCCC2)N(C)C(=O)C2(CCC2)NC(=O)[C@@H]2CC(F)(F)CN2C(=O)[C@H](CCc2ccc(C(F)(F)F)c(Cl)c2)NC(=O)CN(C)C(=O)[C@@H]1Cc1ccc(C(F)(F)F)cc1 [PP0404] ([NMeL]I[Aze][Sar][NPrPhe(4-CF3)][Sar][hPhe(3-Cl-4-CF3)][Pro(4,4-F2)][Ac4c][NMeGly(cPent)][NMeD]-Morpholide; lactam N-11) | B (a compound having 3 or more and less than 10 is denoted as B) | C (A compound having a KD ratio of 0.1 or more and less than 3 is denoted as C) | 7.66 |  | 
CC[C@H](C)[C@@H]1NC(=O)[C@H](CC(C)C)N(C)C(=O)C[C@@H](C(=O)N2CCOCC2)N(C)C(=O)[C@H](C2CCCC2)N(C)C(=O)C2(CCCC2)NC(=O)[C@@H]2CCCN2C(=O)[C@H](CCc2ccc(C(F)(F)F)c(Cl)c2)NC(=O)CN(C)C(=O)[C@H](Cc2ccc(F)cc2)N2C/C=C\CC[C@@H](C2=O)N(C)C(=O)CN(C)C1=O [PP0607] |  |  | 6.92 | C (A compound having a KD ratio of 0.1 or more and less than 3 is denoted as C) | B (a compound having 3 or more and less than 10 is denoted as B)
CC[C@H](C)[C@@H]1NC(=O)[C@H](CC(C)C)N(C)C(=O)C[C@@H](C(=O)N2CCOCC2)N(C)C(=O)[C@H](C2CCCC2)N(C)C(=O)C2(CCCC2)NC(=O)[C@@H]2CCCN2C(=O)[C@H](CCc2ccc(C(F)(F)F)c(Cl)c2)NC(=O)CN(C)C(=O)[C@H](Cc2ccc(Cl)cc2)N2CCCC[C@@H](C2=O)N(C)C(=O)CN(C)C1=O [PP0532] |  |  | 8.16 | C (A compound having a KD ratio of 0.1 or more and less than 3 is denoted as C) | B (a compound having 3 or more and less than 10 is denoted as B)
CCC[C@H]1C(=O)N[C@@H](C2CCCCC2)C(=O)N(C)CC(=O)N(C)[C@H]2C/C=C\CCN(C2=O)[C@@H](Cc2ccc(C)cc2)C(=O)N(C)CC(=O)N[C@@H](CCc2ccc(C(F)(F)F)c(Cl)c2)C(=O)N2C[C@H](OCC)C[C@H]2C(=O)NC2(CC(C)(C)C2)C(=O)N(C)[C@@H](CC(C)(C)C)C(=O)N(C)[C@H](C(=O)N(C)C)CC(=O)N1C [PP3018] | A (a compound having 10 or more and less than 20 is denoted as A) | B (a compound having 3 or more and less than 10 is denoted as B) | 7.72 |  | 
CCO[C@@H]1C[C@H]2C(=O)NC3(CCC3)C(=O)N(C)[C@@H](C3CCCC3)C(=O)N(C)[C@H](C(=O)N(C)C)CC(=O)N(CC)[C@@H](CC(C)C)C(=O)N[C@@H]([C@@H](C)CC)C(=O)N(C)CC(=O)N(C)[C@H]3CC(C)=C(C)CN(C3=O)[C@@H](Cc3ccc(C(F)(F)F)cc3)C(=O)N(C)CC(=O)N[C@@H](CCc3cc(F)c(C(F)(F)F)c(F)c3)C(=O)N2C1 [PP1051] | C (A compound having a KD ratio of 0.1 or more and less than 3 is denoted as C) | C (A compound having a KD ratio of 0.1 or more and less than 3 is denoted as C) | 6.54 |  | 
CC[C@H](C)[C@@H]1NC(=O)[C@H](CC(C)C)N(C)C(=O)C[C@@H](C(=O)N2CCOCC2)N(C)C(=O)[C@H](C2CCCC2)N(C)C(=O)C2(CCCC2)NC(=O)[C@@H]2CCCN2C(=O)[C@H](CCc2ccc(C(F)(F)F)c(Cl)c2)NC(=O)CN(C)C(=O)[C@H](Cc2ccccc2)N2CC=CC[C@@H](C2=O)N(C)C(=O)CN(C)C1=O [PP0528] |  |  | 7.66 | C (A compound having a KD ratio of 0.1 or more and less than 3 is denoted as C) | C (A compound having a KD ratio of 0.1 or more and less than 3 is denoted as C)
CCCN1C(=O)CN(C)C(=O)CN(C)C(=O)[C@H]([C@@H](C)CC)NC(=O)[C@@H]2COCCCC[C@@](C)(NC(=O)[C@@H]3C[C@@H](OCC)CN3C(=O)[C@H](CCc3cc(F)c(C(F)(F)F)c(F)c3)NC(=O)CN(C)C(=O)[C@@H]1Cc1ccc(C(F)(F)F)cc1)C(=O)N(C)[C@@H](C1CCCC1)C(=O)N(C)[C@H](C(=O)N1CCOCC1)CC(=O)N2C [PP0899] | A (a compound having 10 or more and less than 20 is denoted as A) | B (a compound having 3 or more and less than 10 is denoted as B) | 6.03 |  | 
CCCN1C(=O)CN(C)C(=O)[C@@H]2CCN2C(=O)[C@H]([C@@H](C)CC)NC(=O)[C@H](CC(C)C)N(C)C(=O)C[C@@H](C(=O)N(C)C)NC(=O)[C@H](C2CCCC2)N(C)C(=O)C2(CCC2)NC(=O)[C@@H]2CC(F)(F)CN2C(=O)[C@H](CCc2ccc(C(F)(F)F)c(Cl)c2)NC(=O)CN(C)C(=O)[C@@H]1Cc1ccc(C(F)(F)F)cc1 [PP0376] ([NMeL]I[Aze][Sar][NPrPhe(4-CF3)][Sar][hPhe(3-Cl-4-CF3)][Pro(4,4-F2)][Ac4c][NMeGly(cPent)]D-NMe2; lactam N-11) | B (a compound having 3 or more and less than 10 is denoted as B) | B (a compound having 3 or more and less than 10 is denoted as B) | 6.94 |  | 
CC[C@H](C)[C@@H]1NC(=O)[C@H](CC(C)C)N(C)C(=O)C[C@@H](C(=O)N(C)C)N(C)C(=O)[C@H](C2CCCC2)N(C)C(=O)C2(CCCC2)NC(=O)[C@@H]2CCCN2C(=O)[C@H](CCc2ccc(C(F)(F)F)c(Cl)c2)NC(=O)CN(C)C(=O)[C@H](Cc2ccc(C)cc2)N2CC=C(C)C[C@@H](C2=O)N(C)C(=O)CN(C)C1=O [PP0620] |  |  | 7.42 | C (A compound having a KD ratio of 0.1 or more and less than 3 is denoted as C) | C (A compound having a KD ratio of 0.1 or more and less than 3 is denoted as C)
CCCN1C(=O)CN(C)C(=O)[C@@H]2CCN2C(=O)[C@H]([C@@H](C)CC)NC(=O)[C@H](CC(C)C)N(C)C(=O)C[C@@H](C(=O)N(C)C)N(C)C(=O)[C@H](C2CCCC2)N(C)C(=O)C2(CCC2)NC(=O)[C@@H]2CC(F)(F)CN2C(=O)[C@H](CCc2ccc(C(F)(F)F)c(Cl)c2)NC(=O)CN(C)C(=O)[C@@H]1Cc1ccc(C(F)(F)F)cc1 [PP0432] ([NMeL]I[Aze][Sar][NPrPhe(4-CF3)][Sar][hPhe(3-Cl-4-CF3)][Pro(4,4-F2)][Ac4c][NMeGly(cPent)][NMeD]-NMe2; lactam N-11) |  |  | 7.97 | B (a compound having 3 or more and less than 10 is denoted as B) | B (a compound having 3 or more and less than 10 is denoted as B)
CCCN1C(=O)CN(C)C(=O)[C@@H]2CCN2C(=O)[C@H]([C@@H](C)CC)NC(=O)[C@H](CC(C)C)N(C)C(=O)C[C@@H](C(=O)N2CCOCC2)N(C)C(=O)[C@H](C2CCCC2)N(C)C(=O)C2(CCCC2)NC(=O)[C@@H]2C[C@@H](OC)CN2C(=O)[C@H](CCc2ccc(C(F)(F)F)c(Cl)c2)NC(=O)CN(C)C(=O)[C@@H]1Cc1ccc(C(F)(F)F)cc1 [PP0309] ([NMeL]I[Aze][Sar][NPrPhe(4-CF3)][Sar][hPhe(3-Cl-4-CF3)][Hyp](Me)[Ac5c][NMeGly(cPent)][NMeD]-Morpholide; lactam N-11) | B (a compound having 3 or more and less than 10 is denoted as B) | B (a compound having 3 or more and less than 10 is denoted as B) | 7.93 |  | 
CC[C@H](C)[C@@H]1NC(=O)[C@H](CC(C)C)N(C)C(=O)C[C@@H](C(=O)N2CCOCC2)N(C)C(=O)[C@H](C(C)C)N(C)C(=O)C2(CCCC2)NC(=O)[C@@H]2CCCN2C(=O)[C@H](CCc2ccc(C(F)(F)F)c(Cl)c2)NC(=O)CN(C)C(=O)[C@H](Cc2ccc(C)cc2)N(CC)C(=O)CN(C)C(=O)CN(C)C1=O [PP0044] ([NMeL]I[Sar][Sar][NEtPhe(4-Me)][Sar][hPhe(3-Cl-4-CF3)]P[Ac5c][NMeV][NMeD]-Morpholide; lactam N-11) | C (A compound having a KD ratio of 0.1 or more and less than 3 is denoted as C) | C (A compound having a KD ratio of 0.1 or more and less than 3 is denoted as C) | 6.85 |  | 
CC[C@H](C)[C@@H]1NC(=O)[C@H](CC(C)C)N(C)C(=O)C[C@@H](C(=O)N2CCOCC2)N(C)C(=O)[C@H](C2CCCC2)N(C)C(=O)C2(CCCC2)NC(=O)[C@@H]2CCCN2C(=O)[C@H](CCc2ccc(C(F)(F)F)c(Cl)c2)NC(=O)CN(C)C(=O)[C@H](Cc2ccccc2)N2CCCC[C@@H](C2=O)N(C)C(=O)CN(C)C1=O [PP0529] |  |  | 8.19 | C (A compound having a KD ratio of 0.1 or more and less than 3 is denoted as C) | B (a compound having 3 or more and less than 10 is denoted as B)
